Consider 4 molecules from ChEMBL document CHEMBL2169834, “Toward rational fragment-based lead design without 3D structures” (J Med Chem, 2012).

Activity calls are given as the source filed them. No cut-off for these calls is given here.

The target in assay [1] is T1, Catenin beta-1 (Homo sapiens) (UniProt P35222).
T1 sequence (whole entry): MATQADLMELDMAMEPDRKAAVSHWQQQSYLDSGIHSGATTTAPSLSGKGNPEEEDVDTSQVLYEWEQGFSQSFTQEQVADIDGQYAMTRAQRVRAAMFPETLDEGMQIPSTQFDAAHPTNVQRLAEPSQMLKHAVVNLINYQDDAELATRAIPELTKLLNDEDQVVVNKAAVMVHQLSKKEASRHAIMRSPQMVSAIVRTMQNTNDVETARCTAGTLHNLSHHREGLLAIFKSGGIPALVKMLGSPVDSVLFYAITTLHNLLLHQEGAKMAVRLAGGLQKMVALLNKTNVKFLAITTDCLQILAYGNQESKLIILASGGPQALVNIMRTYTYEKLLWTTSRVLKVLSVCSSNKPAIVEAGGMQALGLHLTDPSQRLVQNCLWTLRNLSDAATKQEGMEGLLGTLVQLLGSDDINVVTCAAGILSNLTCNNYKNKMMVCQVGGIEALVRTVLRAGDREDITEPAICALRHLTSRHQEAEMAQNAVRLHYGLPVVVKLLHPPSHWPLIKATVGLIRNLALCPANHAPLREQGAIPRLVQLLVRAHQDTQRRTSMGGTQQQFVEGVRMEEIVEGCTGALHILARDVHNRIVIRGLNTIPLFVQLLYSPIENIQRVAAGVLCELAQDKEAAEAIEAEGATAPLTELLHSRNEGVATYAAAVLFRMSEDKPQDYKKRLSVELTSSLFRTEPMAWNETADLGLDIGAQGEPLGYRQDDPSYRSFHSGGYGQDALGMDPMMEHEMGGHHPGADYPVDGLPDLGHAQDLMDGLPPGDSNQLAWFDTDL
The assay is described as follows: Binding affinity to human beta-catenin at 1 mM by 1H-STD NMR analysis.

The nature of assay [2]: Binding affinity to quail lipocalin Q83 at 200 uM by tryptophan fluorescence quenching experiment. Set-up: species or system Galliformes.
The subject of the next assay is Galliformes. Briefly: Binding affinity to quail lipocalin Q83 by 1H-15N HSQC-based NMR analysis.
A short description of assay [3]: Binding affinity to quail lipocalin Q83 assessed as first molecule binding at 2:1 compound:protein ratio by […]. Also noted: species or system Galliformes.
Assay [4] is described as follows: Binding affinity to quail lipocalin Q83 assessed as second molecule binding at 2:1 compound:protein ratio by […]. Also noted: species or system Galliformes.

Regarding `O=C1OC2(c3ccc(O)cc3Oc3cc(O)ccc32)c2ccccc21`, the result in assay [1] was Active.

On to `Nc1ccc(/N=N/c2ccc(S(=O)(=O)O)cc2)cc1S(=O)(=O)O`, for which the dissociation constant (Kd) in assay [2] was determined as 25 µM. In the assay with Galliformes, the outcome was Active. Consider `Cc1c(Br)cc2c(-c3ccccc3C(=O)O)c3cc(Br)c(=O)c(Br)c-3oc2c1Br`, for which the result in assay [1] was Active.

With `COc1cc(C(=O)O)ccc1O` [VANILLIC ACID], the Kd in assay [3] is 500 µM; in assay [4], 70000 µM. In the assay on Galliformes, the outcome was Active.

Broadly, the Kd is the constant that tells how readily two partners part at equilibrium.
